Reference: US11872262B2, “Means and methods for treating bacterial infections” (VIB VZW, priority 2017, dated 2024)
Residues, ends and D or L forms follow the SMILES beside them.

The compounds below were run on E. coli O157:H7. Settings: screening-stage peptides tested at 1, 6, 12 and 25 μg/mL.
Assay type: cell-based, Escherichia coli
From the text: In the present invention we used the statistical thermodynamics algorithm TANGO to identify aggregation prone regions (APR) in the proteome of E. coli strain O157:H7. This yielded 3535 sequences of at least 6 amino acids in length and a TANGO score of at least 20%. In order to generate efficient aggregation seeds, we employed a previously devised tandem repeat design ^19, 21, in which the APRs are repeated once and separated by a linker. Given the length limitation on solid phase peptide synthesis with regard to yield and purity, we focused on the 1542 APRs with a length of 7 amino acids. In order to maximize the potential of these peptides to induce aggregation in E. coli, we ranked the APRs by their frequency of occurrence throughout the E. coli proteome, allowing a single amino acid mismatch, and selected the first 75 most frequently occurring sequences from this list (Table 4). In the design pattern, and in order to increase the colloidal stability of these aggregating peptides, the APRs are flanked by aggregation gatekeepers, a class of residues that was previously shown to reduce aggregation kinetics^22-24. […] To generate the tandem we used a single proline residue as a linker between the gatekeeper-flanked APRs. In addition to the 75 peptides generated in this fashion, we added 2 variants of each of the first 25 peptides in the list by randomly mutating one residue in the first APR repeat to arginine to further modulate the aggregation propensity of the peptides (Table 4). All the peptides were generated using solid phase synthesis at 200 nmole scale and dissolved in DMSO to a theoretical stock concentration of 2 mM (assuming 100% synthesis efficiency). Peptide activity on the growth of E. coli O157:H7 was measured at dilutions of the peptide corresponding to concentrations of 1, 6, 12 and 25 μg/mL. […] The Matthews Correlations Coefficient (MCC) with the measured activity was 0.1 at 12 μg/mL and 0.24 at 25 μg/mL.

Compound | E. coli O157 (apparent MIC in screen)
CC(C)C[C@H](NC(=O)[C@H](CC(C)C)NC(=O)[C@H](CC(C)C)NC(=O)[C@H](CCCNC(=N)N)NC(=O)[C@@H]1CCCN1C(=O)[C@H](CCCNC(=N)N)NC(=O)[C@H](CCCNC(=N)N)NC(=O)[C@@H](NC(=O)[C@H](CC(C)C)NC(=O)[C@H](CC(C)C)NC(=O)[C@H](CO)NC(=O)[C@H](CC(C)C)NC(=O)[C@H](CCCNC(=N)N)NC(=O)[C@H](CC(C)C)NC(=O)[C@@H](N)CCCNC(=N)N)C(C)C)C(=O)N[C@@H](CO)C(=O)N[C@@H](CC(C)C)C(=O)N[C@@H](CC(C)C)C(=O)N[C@H](C(=O)N[C@@H](CCCNC(=N)N)C(=O)N[C@@H](CCCNC(=N)N)C(=O)O)C(C)C [Peptide P76] (H-RLRLSLLVRRPRLLLSLLVRR-OH; N-terminus and C-terminus assumed) | 12 µg/mL
CC[C@H](C)[C@H](NC(=O)CNC(=O)[C@H](CC(C)C)NC(=O)[C@H](CCCNC(=N)N)NC(=O)[C@@H]1CCCN1C(=O)[C@H](CCCNC(=N)N)NC(=O)[C@H](CCCNC(=N)N)NC(=O)[C@H](CC(C)C)NC(=O)[C@H](C)NC(=O)[C@@H](NC(=O)[C@H](C)NC(=O)[C@@H](NC(=O)CNC(=O)[C@H](CC(C)C)NC(=O)[C@@H](N)CCCNC(=N)N)[C@@H](C)CC)C(C)C)C(=O)N[C@@H](C)C(=O)N[C@H](C(=O)N[C@@H](C)C(=O)N[C@@H](CC(C)C)C(=O)N[C@@H](CCCNC(=N)N)C(=O)N[C@@H](CCCNC(=N)N)C(=O)O)C(C)C [Peptide P33] (H-RLGIAVALRRPRLGIAVALRR-OH; N-terminus and C-terminus assumed) | 25 µg/mL
CC(C)C[C@H](NC(=O)CNC(=O)[C@H](CC(C)C)NC(=O)[C@@H](NC(=O)[C@H](C)NC(=O)[C@H](CCCNC(=N)N)NC(=O)[C@@H]1CCCN1C(=O)[C@H](CCCNC(=N)N)NC(=O)[C@H](CCCNC(=N)N)NC(=O)[C@H](C)NC(=O)[C@H](CC(C)C)NC(=O)[C@H](CC(C)C)NC(=O)CNC(=O)[C@H](CCCNC(=N)N)NC(=O)[C@@H](NC(=O)[C@H](C)NC(=O)[C@@H](N)CCCNC(=N)N)C(C)C)C(C)C)C(=O)N[C@@H](CC(C)C)C(=O)N[C@@H](C)C(=O)N[C@@H](CCCNC(=N)N)C(=O)N[C@@H](CCCNC(=N)N)C(=O)O [Peptide P88] (H-RAVRGLLARRPRAVLGLLARR-OH; N-terminus and C-terminus assumed) | 25 µg/mL
CC[C@H](C)[C@H](NC(=O)[C@H](CCCNC(=N)N)NC(=O)[C@@H]1CCCN1C(=O)[C@H](CCCNC(=N)N)NC(=O)[C@H](CCCNC(=N)N)NC(=O)[C@H](CC(N)=O)NC(=O)[C@H](CC(C)C)NC(=O)[C@@H](NC(=O)[C@H](CCCNC(=N)N)NC(=O)[C@@H](NC(=O)[C@@H](NC(=O)[C@@H](NC(=O)[C@@H](N)CCCNC(=N)N)[C@@H](C)CC)C(C)C)[C@@H](C)O)[C@@H](C)O)C(=O)N[C@H](C(=O)N[C@H](C(=O)N[C@H](C(=O)N[C@H](C(=O)N[C@@H](CC(C)C)C(=O)N[C@@H](CC(N)=O)C(=O)N[C@@H](CCCNC(=N)N)C(=O)N[C@@H](CCCNC(=N)N)C(=O)O)[C@@H](C)O)C(C)C)[C@@H](C)O)C(C)C [Peptide P125] (H-RIVTRTLNRRPRIVTVTLNRR-OH; N-terminus and C-terminus assumed) | 25 µg/mL
CC(C)C[C@H](NC(=O)[C@H](CC(C)C)NC(=O)[C@H](CC(C)C)NC(=O)[C@H](CCCNC(=N)N)NC(=O)[C@@H]1CCCN1C(=O)[C@H](CCCNC(=N)N)NC(=O)[C@H](CCCNC(=N)N)NC(=O)[C@@H](NC(=O)[C@H](CC(C)C)NC(=O)[C@H](CC(C)C)NC(=O)[C@H](CO)NC(=O)[C@H](CCCNC(=N)N)NC(=O)[C@H](CC(C)C)NC(=O)[C@H](CC(C)C)NC(=O)[C@@H](N)CCCNC(=N)N)C(C)C)C(=O)N[C@@H](CO)C(=O)N[C@@H](CC(C)C)C(=O)N[C@@H](CC(C)C)C(=O)N[C@H](C(=O)N[C@@H](CCCNC(=N)N)C(=O)N[C@@H](CCCNC(=N)N)C(=O)O)C(C)C [Peptide P101] (H-RLLRSLLVRRPRLLLSLLVRR-OH; N-terminus and C-terminus assumed) | 12 µg/mL
CC(C)C[C@H](NC(=O)CNC(=O)[C@@H](NC(=O)[C@H](CC(C)C)NC(=O)[C@H](CCCNC(=N)N)NC(=O)[C@@H]1CCCN1C(=O)[C@H](CCCNC(=N)N)NC(=O)[C@H](CCCNC(=N)N)NC(=O)CNC(=O)[C@H](CC(C)C)NC(=O)[C@@H](NC(=O)[C@H](CC(C)C)NC(=O)CNC(=O)[C@@H](NC(=O)[C@H](CC(C)C)NC(=O)[C@@H](N)CCCNC(=N)N)C(C)C)C(C)C)C(C)C)C(=O)N[C@H](C(=O)N[C@@H](CC(C)C)C(=O)NCC(=O)N[C@@H](CCCNC(=N)N)C(=O)N[C@@H](CCCNC(=N)N)C(=O)O)C(C)C [Peptide P50] (H-RLVGLVLGRRPRLVGLVLGRR-OH; N-terminus and C-terminus assumed) | 6 µg/mL
CC(C)C[C@H](NC(=O)[C@H](C)NC(=O)[C@H](CCCNC(=N)N)NC(=O)[C@@H]1CCCN1C(=O)[C@H](CCCNC(=N)N)NC(=O)[C@H](CCCNC(=N)N)NC(=O)[C@H](CC(C)C)NC(=O)[C@H](CC(C)C)NC(=O)[C@@H](NC(=O)[C@@H](NC(=O)[C@H](CCCNC(=N)N)NC(=O)[C@H](CC(C)C)NC(=O)[C@H](C)NC(=O)[C@@H](N)CCCNC(=N)N)[C@@H](C)O)[C@@H](C)O)C(=O)N[C@@H](CC(C)C)C(=O)N[C@H](C(=O)N[C@H](C(=O)N[C@@H](CC(C)C)C(=O)N[C@@H](CC(C)C)C(=O)N[C@@H](CCCNC(=N)N)C(=O)N[C@@H](CCCNC(=N)N)C(=O)O)[C@@H](C)O)[C@@H](C)O [Peptide P80] (H-RALRTTLLRRPRALLTTLLRR-OH; N-terminus and C-terminus assumed) | 25 µg/mL
CC(C)C[C@H](NC(=O)CNC(=O)[C@@H](NC(=O)[C@H](Cc1ccccc1)NC(=O)[C@H](CC(C)C)NC(=O)[C@H](CCCNC(=N)N)NC(=O)[C@@H]1CCCN1C(=O)[C@H](CCCNC(=N)N)NC(=O)[C@H](CCCNC(=N)N)NC(=O)[C@H](CC(C)C)NC(=O)[C@H](C)NC(=O)[C@H](CC(C)C)NC(=O)CNC(=O)[C@@H](NC(=O)[C@H](Cc1ccccc1)NC(=O)[C@H](CC(C)C)NC(=O)[C@@H](N)CCCNC(=N)N)C(C)C)C(C)C)C(=O)N[C@@H](C)C(=O)N[C@@H](CC(C)C)C(=O)N[C@@H](CCCNC(=N)N)C(=O)N[C@@H](CCCNC(=N)N)C(=O)O [Peptide P26] (H-RLFVGLALRRPRLFVGLALRR-OH; N-terminus and C-terminus assumed) | 25 µg/mL
CC[C@H](C)[C@H](NC(=O)CNC(=O)[C@@H](NC(=O)[C@H](CC(C)C)NC(=O)[C@H](CCCNC(=N)N)NC(=O)[C@@H]1CCCN1C(=O)[C@H](CCCNC(=N)N)NC(=O)[C@H](CCCNC(=N)N)NC(=O)CNC(=O)[C@H](CC(C)C)NC(=O)[C@H](C)NC(=O)[C@@H](NC(=O)[C@H](CCCNC(=N)N)NC(=O)[C@@H](NC(=O)[C@H](CC(C)C)NC(=O)[C@@H](N)CCCNC(=N)N)[C@@H](C)CC)[C@@H](C)CC)[C@@H](C)CC)C(=O)N[C@@H](C)C(=O)N[C@@H](CC(C)C)C(=O)NCC(=O)N[C@@H](CCCNC(=N)N)C(=O)N[C@@H](CCCNC(=N)N)C(=O)O [Peptide P115] (H-RLIRIALGRRPRLIGIALGRR-OH; N-terminus and C-terminus assumed) | 25 µg/mL
